Several values for one entry are separate records, joined by “and”; a condition that tells them apart may be missing. Equal entries are not always repeated.
Legend:
[1] = biological target: T1, PfCRT^Dd2_F145I (Plasmodium falciparum, UniProt Q8IBZ9, A220S/F145I/I356T/K76T/M74I/N326S/N75E/Q271E/R371I); assay: Radiolabeled drug uptake in X. laevis oocytes expressing PfCRT^Dd2_F145I; type: cell-based
T1 construct: expressed in transfected cells; host or cells: Xenopus laevis oocytes injected with in vitro transcribed RNA (pSP64T)
T1 sequence (Q8IBZ9 1-424 M74I/N75E/K76T/F145I/A220S/Q271E/N326S/I356T/R371I): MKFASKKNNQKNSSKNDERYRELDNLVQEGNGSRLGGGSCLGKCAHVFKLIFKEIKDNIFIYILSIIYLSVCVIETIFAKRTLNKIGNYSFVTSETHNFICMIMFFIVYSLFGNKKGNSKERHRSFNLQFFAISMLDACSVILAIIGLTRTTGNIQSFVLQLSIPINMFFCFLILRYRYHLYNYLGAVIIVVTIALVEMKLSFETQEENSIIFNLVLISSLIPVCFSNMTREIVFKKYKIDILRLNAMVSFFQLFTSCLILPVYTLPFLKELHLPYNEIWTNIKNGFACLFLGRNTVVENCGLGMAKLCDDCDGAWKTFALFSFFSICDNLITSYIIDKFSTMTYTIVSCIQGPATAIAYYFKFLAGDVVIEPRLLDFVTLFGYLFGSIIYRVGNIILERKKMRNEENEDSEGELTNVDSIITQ
Source text: The two kinetic parameters were derived by fitting the Michaelis-Menten equation to the kinetic data (Table 1).
A codon-optimized coding sequence of the Dd2 isoform of PfCRT (PfCRT^Dd2) was subcloned into the pSP64T expression vector [21]. To generate the necessary mutations to introduce the amino acid substitutions H97Y, F145I, M343L or G353V into the pfcrt sequence, the overlap extension method was used. A region from the 5’-untranslated Xenopus β-globin sequence to the respective 3’ region, containing the full length pfcrt coding sequence, was amplified using the following primer pairs: for the H97Y mutation, numbers 1/4 and 2/3; for the F145I mutation, numbers 1/6 and 2/5; for the M343L mutation, numbers 1/8 and 2/7; and for the G353V mutation, numbers 1/10 and 2/9 (for primers, see S2 Table). Both PCR products were used as template for amplification of the final product using primers number 1/2. The resulting fragment was cloned into the pSP64T expression vector, and the presence of the desired mutation was confirmed by sequencing.
(§1) Adult female X. laevis frogs (purchased from NASCO) were anesthetized by submersion in a solution of 0.3% (w/v) 3-amino benzoate methanesulfonate for 15 min. Sections of the ovary were surgically removed and placed in Ca^2+-free ND96 buffer supplemented with 0.1% collagenase D (w/v; Roche), 0.5% BSA (w/v) and 9 mM Na2HPO4 at 18°C for 14–16 h while gently shaking. The oocytes were then washed several times with ND96 buffer (5 mM HEPES, pH 7.5, 96 mM NaCl, 2 mM KCl, 1.8 mM CaCl2, 1 mM MgCl2), supplemented with […] gentamycin. Healthy-looking stage V-VI oocytes were manually selected and randomly grouped for injection. A codon-optimized coding sequence of PfCRT was subcloned into the pSP64T expression vector and subsequently linearized using the restriction endonuclease BamHI or SalI (New England Biolabs GmbH). RNA for injection was transcribed in vitro using the mMESSAGE mMACHINE SP6 Transcription kit (Ambion), diluted with nuclease-free water to a final concentration of 0.6 μg/μL and stored at -80°C. RNA was injected using precision-bore glass capillary tubes (3.5-inch glass capillaries; Drummond Scientific Co.), which were pulled on a vertical puller (P-87 Flaming/Brown micropipette puller, Sutter Instrument Co.) and graduated. The micropipettes were connected to a microinjector (Nanoject II Auto-Nanoliter Injector, Drummond Scientific Co.). Injection was conducted under stereomicroscopic control. 50 nL of nuclease-free water alone (control oocytes) or 50 nL of nuclease-free water containing 30 ng of RNA was injected per oocyte. Injected oocytes were kept for 72 h at 18°C in ND96 buffer with two daily buffer changes before being used for further experiments.
(§2) Drug transport assays were performed as previously described. Briefly, measurements of radiolabeled drug uptake were made over 1 h, unless otherwise specified. […] Where specified, one or more unlabeled drugs were also present at the indicated concentrations. […] The uptake assays were terminated by removing the oocytes from the reaction medium and washing them three times with 2 mL of ice-cold ND96 buffer. Each oocyte was transferred to a separate scintillation vial and lysed by the addition of 200 μL of a 5% SDS solution. The radioactivity in the sample was measured using a liquid scintillation analyser Tri-Carb 4910 TR (PerkinElmer). Water-injected oocytes were analyzed in parallel as a negative control. The buffer from each condition was measured in duplicate in parallel to each experiment to transform counts per minute into pmol of drug. Drug uptake attributable to PfCRT was determined by subtracting the background uptake from water-injected oocytes from that of PfCRT-expressing oocytes.

[2] = test system: water-injected oocytes; assay: Radiolabeled drug uptake in water-injected control oocytes (intrinsic drug accumulation); type: cell-based, Xenopus laevis; conditions: 50 μM PPQ, pH 6.0; one value per biological replicate
Protocol: as §1
as §2, with “oocytes. In all cases, at least three independent experiments were performed on oocytes from different frogs, and for each condition in an experiment, measurements were made from 10 oocytes per treatment.” for “oocytes.”

[3] = 50 μM PPQ, pH 6.0, total uptake, one value per biological replicate
[4] = 50 μM PPQ, pH 6.0, water-injected uptake subtracted, per replicate
[5] = 60 min, pH 6, per biological replicate

Structure (SMILES): Clc1ccc2c(N3CCN(CCCN4CCN(c5ccnc6cc(Cl)ccc56)CC4)CC3)ccnc2c1 [PPQ, piperaquine]
- PfCRTDd2_F145I-mediated PPQ uptake at 10 µM PPQ ([1]; 10 µM PPQ, single replicates): 11.21 pmol oocyte-1 h-1 and 11.88 pmol oocyte-1 h-1 and 9.04 pmol oocyte-1 h-1
- PfCRTDd2_F145I PPQ uptake at 10 min [1, 3]: 41.61 pmol oocyte-1 and 17.68 pmol oocyte-1 and 66.82 pmol oocyte-1 and 63.70 pmol oocyte-1 and 39.93 pmol oocyte-1
- PfCRTDd2_F145I PPQ uptake at 30 min [1, 3]: 65.21 pmol oocyte-1 and 116.16 pmol oocyte-1 and 126.02 pmol oocyte-1
- PfCRTDd2_F145I PPQ uptake at 60 min [1, 3]: 236.23 pmol oocyte-1 and 329.69 pmol oocyte-1 and 256.17 pmol oocyte-1 and 126.53 pmol oocyte-1 and 203.02 pmol oocyte-1 and 85.96 pmol oocyte-1 and 54.49 pmol oocyte-1 and 109.72 pmol oocyte-1 and 205.44 pmol oocyte-1 and 121.75 pmol oocyte-1 and 41.63 pmol oocyte-1
- PfCRTDd2_F145I PPQ uptake at 90 min [1, 3]: 231.09 pmol oocyte-1 and 187.07 pmol oocyte-1 and 164.98 pmol oocyte-1 and 158.85 pmol oocyte-1
- PfCRTDd2_F145I PPQ uptake at 120 min [1, 3]: 355.30 pmol oocyte-1 and 204.11 pmol oocyte-1 and 281.88 pmol oocyte-1 and 284.17 pmol oocyte-1 and 64.48 pmol oocyte-1 and 488.71 pmol oocyte-1
- PfCRTDd2_F145I PPQ uptake at 180 min [1, 3]: 182.19 pmol oocyte-1 and 278.77 pmol oocyte-1 and 329.69 pmol oocyte-1 and 378.75 pmol oocyte-1
- PfCRTDd2_F145I-mediated PPQ uptake at 10 min [1, 4]: 21.57 pmol oocyte-1 and 6.53 pmol oocyte-1 and 19.62 pmol oocyte-1 and 21.70 pmol oocyte-1 and 15.89 pmol oocyte-1
- PfCRTDd2_F145I-mediated PPQ uptake at 30 min [1, 4]: 25.28 pmol oocyte-1 and 34.52 pmol oocyte-1 and 15.41 pmol oocyte-1
- PfCRTDd2_F145I-mediated PPQ uptake at 60 min [1, 4]: 39.58 pmol oocyte-1 and 153.01 pmol oocyte-1 and 36.72 pmol oocyte-1 and 18.65 pmol oocyte-1 and 19.44 pmol oocyte-1 and 16.68 pmol oocyte-1 and 27.82 pmol oocyte-1 and 75.44 pmol oocyte-1 and 27.59 pmol oocyte-1 and 15.54 pmol oocyte-1 and 75.68 pmol oocyte-1
- PfCRTDd2_F145I-mediated PPQ uptake at 90 min [1, 4]: 89.48 pmol oocyte-1 and 78.18 pmol oocyte-1 and 49.49 pmol oocyte-1 and 48.14 pmol oocyte-1
- PfCRTDd2_F145I-mediated PPQ uptake at 120 min [1, 4]: 115.65 pmol oocyte-1 and 103.98 pmol oocyte-1 and 53.31 pmol oocyte-1 and 32.06 pmol oocyte-1 and 52.11 pmol oocyte-1 and 114.20 pmol oocyte-1
- PfCRTDd2_F145I-mediated PPQ uptake at 180 min [1, 4]: 46.86 pmol oocyte-1 and 115.74 pmol oocyte-1 and 109.59 pmol oocyte-1 and 113.43 pmol oocyte-1
- PfCRTDd2_F145I-mediated PPQ uptake at 50 µM PPQ ([1]; 50 µM PPQ, single replicates): 27.82 pmol oocyte-1 h-1 and 75.44 pmol oocyte-1 h-1 and 27.59 pmol oocyte-1 h-1 and 75.68 pmol oocyte-1 h-1 and 39.58 pmol oocyte-1 h-1 and 36.72 pmol oocyte-1 h-1 and 42.92 pmol oocyte-1 h-1
- PfCRTDd2_F145I-mediated PPQ uptake at 100 µM PPQ ([1]; 100 µM PPQ, single replicates): 60.49 pmol oocyte-1 h-1 and 74.22 pmol oocyte-1 h-1 and 87.33 pmol oocyte-1 h-1 and 56.31 pmol oocyte-1 h-1
- PfCRTDd2_F145I-mediated PPQ uptake at 200 µM PPQ ([1]; 200 µM PPQ, single replicates): 98.82 pmol oocyte-1 h-1 and 131.61 pmol oocyte-1 h-1 and 62.02 pmol oocyte-1 h-1 and 88.46 pmol oocyte-1 h-1
- PfCRTDd2_F145I-mediated PPQ uptake at 300 µM PPQ ([1]; 300 µM PPQ, single replicates): 115.45 pmol oocyte-1 h-1 and 117.23 pmol oocyte-1 h-1 and 91.14 pmol oocyte-1 h-1
- PfCRTDd2_F145I-mediated PPQ uptake at 400 µM PPQ ([1]; 400 µM PPQ, single replicates): 130.32 pmol oocyte-1 h-1 and 101.99 pmol oocyte-1 h-1 and 105.11 pmol oocyte-1 h-1
- PfCRTDd2_F145I-mediated PPQ uptake at 500 µM PPQ ([1]; 500 µM PPQ, single replicates): 124.15 pmol oocyte-1 h-1 and 149.83 pmol oocyte-1 h-1 and 96.18 pmol oocyte-1 h-1
- PfCRTDd2_F145I-mediated PPQ uptake at 10 µM PPQ [1, 5]: 11.21 pmol oocyte-1 h-1 and 11.88 pmol oocyte-1 h-1 and 9.04 pmol oocyte-1 h-1
- PfCRTDd2_F145I-mediated PPQ uptake at 50 µM PPQ [1, 5]: 39.58 pmol oocyte-1 h-1 and 36.72 pmol oocyte-1 h-1 and 42.92 pmol oocyte-1 h-1 and 27.82 pmol oocyte-1 h-1 and 75.44 pmol oocyte-1 h-1 and 27.59 pmol oocyte-1 h-1 and 75.68 pmol oocyte-1 h-1
- PfCRTDd2_F145I-mediated PPQ uptake at 100 µM PPQ [1, 5]: 60.49 pmol oocyte-1 h-1 and 74.22 pmol oocyte-1 h-1 and 87.33 pmol oocyte-1 h-1 and 56.31 pmol oocyte-1 h-1
- PfCRTDd2_F145I-mediated PPQ uptake at 200 µM PPQ [1, 5]: 98.82 pmol oocyte-1 h-1 and 131.61 pmol oocyte-1 h-1 and 62.02 pmol oocyte-1 h-1 and 88.46 pmol oocyte-1 h-1
- PfCRTDd2_F145I-mediated PPQ uptake at 300 µM PPQ [1, 5]: 115.45 pmol oocyte-1 h-1 and 117.23 pmol oocyte-1 h-1 and 91.14 pmol oocyte-1 h-1
- PfCRTDd2_F145I-mediated PPQ uptake at 400 µM PPQ [1, 5]: 130.32 pmol oocyte-1 h-1 and 101.99 pmol oocyte-1 h-1 and 105.11 pmol oocyte-1 h-1
- PfCRTDd2_F145I-mediated PPQ uptake at 500 µM PPQ [1, 5]: 124.15 pmol oocyte-1 h-1 and 149.83 pmol oocyte-1 h-1 and 96.18 pmol oocyte-1 h-1
- Km ([1]; Michaelis-Menten fit, 10-500 μM drug, 60 min, pH 6, read-out: KM, Michaelis constant): 115 ± 7 µM
- increase of Vmax by the F145I substitution ([1]; versus PfCRT^Dd2): 14%
- water-injected PPQ uptake at 10 min [2]: 41.08 pmol oocyte-1 and 24.73 pmol oocyte-1 and 20.03 pmol oocyte-1 and 11.15 pmol oocyte-1 and 47.19 pmol oocyte-1 and 42.00 pmol oocyte-1 and 43.00 pmol oocyte-1 and 24.03 pmol oocyte-1 and 24.68 pmol oocyte-1
- water-injected PPQ uptake at 30 min [2]: 39.93 pmol oocyte-1 and 81.64 pmol oocyte-1 and 110.61 pmol oocyte-1 and 36.25 pmol oocyte-1 and 63.03 pmol oocyte-1 and 70.49 pmol oocyte-1 and 61.47 pmol oocyte-1
- water-injected PPQ uptake at 60 min [2]: 160.55 pmol oocyte-1 and 290.10 pmol oocyte-1 and 103.17 pmol oocyte-1 and 89.81 pmol oocyte-1 and 146.11 pmol oocyte-1 and 119.20 pmol oocyte-1 and 106.15 pmol oocyte-1 and 92.97 pmol oocyte-1 and 66.51 pmol oocyte-1 and 37.81 pmol oocyte-1 and 81.90 pmol oocyte-1 and 130.00 pmol oocyte-1 and 94.16 pmol oocyte-1 and 115.25 pmol oocyte-1 and 26.09 pmol oocyte-1
- water-injected PPQ uptake at 90 min [2]: 141.60 pmol oocyte-1 and 108.94 pmol oocyte-1 and 115.49 pmol oocyte-1 and 110.70 pmol oocyte-1 and 135.43 pmol oocyte-1 and 121.15 pmol oocyte-1 and 104.62 pmol oocyte-1
- water-injected PPQ uptake at 120 min [2]: 303.20 pmol oocyte-1 and 211.45 pmol oocyte-1 and 192.46 pmol oocyte-1 and 188.86 pmol oocyte-1 and 88.47 pmol oocyte-1 and 177.90 pmol oocyte-1 and 230.86 pmol oocyte-1 and 32.42 pmol oocyte-1 and 62.20 pmol oocyte-1 and 374.51 pmol oocyte-1 and 406.68 pmol oocyte-1
- water-injected PPQ uptake at 180 min [2]: 179.29 pmol oocyte-1 and 189.51 pmol oocyte-1 and 135.33 pmol oocyte-1 and 198.05 pmol oocyte-1 and 192.50 pmol oocyte-1 and 163.03 pmol oocyte-1 and 220.09 pmol oocyte-1 and 265.31 pmol oocyte-1 and 192.47 pmol oocyte-1
